The structures appear in SMILES notation.

We go through 1 molecule from patent US20220249418A1, “COMPOSITIONS COMPRISING AMINO ACIDS FOR USE IN THE TREATMENT OF MITOCHONDRIAL DYSFUNCTION-RELATED DISEASES” (PROFESSIONAL DIETETICS INTERNATIONAL S.R.L., priority 2017, published 2022).

The test system of the experiment is HL-1 cardiomyocytes. Nature of the experiment: oxygen consumption (Clark-type oxygen electrode). The class given is cell-based, Mus musculus. As to conditions: HL-1 cells, 48 hr treatment, normalized to protein content; FIG. 5. As to the method: HL-1 cardiomyocytes (a gift from W. C. Claycomb, New Orleans, School of Medicine) were plated in fibronectin/gelatin-coated flasks, grown to 70%-80% confluence in Claycomb medium (JRH Biosciences) supplemented with 100 μM norepinephrine (from a 10 mM norepinephrine [Sigma-Aldrich] stock solution dissolved in 30 mM L-ascorbic acid [Sigma-Aldrich]), 2 mM L-glutamine, 100 U/ml penicillin, 100 μg/ml streptomycin and 10% FBS (JRH Biosciences) as disclosed in Claycomb et al., 1998.
At the end of these periods, mRNA and DNA were extracted from the cells or the cells were used to evaluate the oxygen consumption. Control cells were treated with Claycomb medium only.
An amount of 1 ml of HL-1 cardiomyocytes treated with the compositions shown in Table 1 was re-suspended in Hank's balanced salt solution (Sigma) and spun down to pellet cells. A number of HL-1 cells was also supplemented with a nitic oxide (NO) donor, specifically with diethylenetriamine-NO also called (DETA-NO; Sigma-Aldrich, Milan, Italy), as positive control. […]
Samples were analyzed at 37° C. in a gas-tight vessel equipped with a Clark-type oxygen electrode (Rank Brothers Ltd.) connected to a chart recorder. […]
Oxygen consumption was assessed with continuous mixing for about ten minutes. […] Protein content was determined by using the bicinchoninic acid protein (BCA) assay.

For the molecule `NCCN(CCN)/[N+]([O-])=N/O` [DETA-NO, diethylenetriamine-NO], the oxygen consumption result was “a rise of oxygen consumption was observed”.
